Key:
[1] = test system: isolated rabbit hearts; experiment: Ex-vivo rabbit model: Langendorff-perfused isolated hearts, VF induction and optical mapping of calcium alternans; set-up: species or system New-Zealand white rabbits
Method: New-Zealand white rabbits with weight ranging from 2.4-4.5 Kg were used. (n=14). All animals were anesthetized with sodium pentobarbital (35 mg/kg), aorta was attached to the Langendorff apparatus and retrogradely perfused with 37.5° C. oxygenated Tyrode solution with albumin 80 mg/L in deionized water equilibrated with 95% 02 and 5% CO2. Simultaneous optical mapping of epicardial surface of isolated hearts for Calcium and Voltage was performed using 0.5 mg Rhod2-AM and 10 microM/1 RH237. Blebbistatin at 10 microM/L was added to Tyrode solution to block cardiac contractions.
VF was induced by burst pacing for 30 sec at 60 Hz and 10V and hearts were continuously perfused during VF. […] VF was monitored for 4 min and then defibrillated at 5 J. Five minutes after termination of first VF episode, 4 more episodes of fibrillation-defibrillation were tried on each heart with 5 min recovery time (in sinus rhythm) in between. VF duration for each VF episode was 4 min (or shorter in case of self-termination) followed by defibrillation. […] Additionally, hearts were paced at various rates of 250, 220, 200, 180 and 160 msec Cycle Length (CL) for 30 seconds after first and second VF episodes. Simultaneous optical mapping of Calcium and voltage was performed during pacing to evaluate for Calcium Alternans. Calcium alternans was defined as beat-to-beat difference of more than 10% in Calcium wave amplitude. At the end of the experiment, LV tissue from the LV free wall was removed and frozen in liquid Nitrogen for further western blot analysis.
P<0.05 was considered statistically significant.

[2] = test system: Yorkshire pigs; experiment: In-vivo swine model of VF cardiac arrest with CPR and defibrillation;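 further: VF induced by burst pacing in anesthetized pigs, left untreated 4 min, then 3 min CPR and defibrillation, with ECG and aortic pressure monitored for 30 min afterwards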
Text: Previously healthy 10-12 weeks-old Yorkshire pigs (n=24) were used. […] Following endotracheal intubation anesthesia was maintained by continuous administration of Isoflurane (2% mixed with 100% O2) and ventilated (Ohio ventilator R.A.E. Technologies, Inc. Ontario) at 21 breaths/min and was continuously measured using CO2MO Plus monitoring system (Novametrix Medical Systems). Animals were continuously monitored using Lifepak 12 Medtronic-PhysioControl defibrillator for ECG monitoring. Two self-adhesive defibrillation pads were attached to the lateral aspects of the chest wall for defibrillation. (Medtronics Inc, Redmond, Wash.)
Femoral arteries and veins were catheterized and an EP catheter (EP Technologies Inc, Sunnyvale, Calif.) was placed in the right ventricle to enable pacing and to induce VF. Two micro manometer-tipped Millar catheters (Millar Instruments, Inc, Houston, Tex.) were placed in Abdominal Aorta and right atrium. Pacing catheter was further attached to a custom designed signal acquisition and processing system. (Electrophysiological Recording system-Acqui2, Toronto, ON) The pressure and ECG signals were recorded at 1000 Hz with a 0.05 Hz high pass and 500 Hz low pass filter by custom software. (Acqui2, Cartesian Labs)
After initial monitoring and stabilization, VF was induced by burst pacing (10V of 60 Hz current for 2 seconds) and left untreated for 4 minutes. Then, chest compression was started using a pneumatic device (Lucas, Jolife AB, Lund, Sweden) at 100 compressions/min and manual ventilation at 6 breath/min using 5-6 liters/min of 100% O2 with an AMBU bag was performed. CPR was continued for 3 minutes with no interruption of chest compressions. […] After successful defibrillation, animals were monitored for 30 min to assess the outcome and occurrence of Refibrillations. At the end, survivors were sacrificed by inducing VF. If animals could not be defibrillated during refibrillation, the energy level was increased in a stepwise fashion to up to 4 attempts at 360 J.
Refibrillation was defined as recurrence of VF after at least 5 beats of a non-VF rhythm following defibrillation. Survival was determined based on presence of sBP≧30 mmHg in abdominal aorta and normal sinus rhythm at the end of 30 min observation period. Time to Return of Spontaneous Circulation (ROSC) was calculated from the onset of CPR until sBP≧60 mmHg was attained in abdominal aorta after successful defibrillation. Sustained ROSC was defined as maintenance of sBP≧60 mmHg by the end of 30-min observation post-defibrillation. Ventricular ERP was measured at baseline and at 20 minutes into recovery (if any) via the S1-S2 stimulation method. Surface ECG signals at 4 min of VF and at 7 min of VF were extracted to analyze for VF organization. A Spatio-temporal index of VF organization (Regularity Index (RI)) was used. RI was defined as the ratio of the power at the Dominant Frequency (DF) to the total power. […] The total power was calculated as the sums over the range of 5-15 Hz. Values vary between 0 (disorganized) to 1 (highly organized).
Mean time to ROSC, mean time to successful defibrillation, onset of refibrillation and regularity index of VF at different time points were analyzed using unpaired student t-test. Repeated-measures ANOVA was used to compare continuous variables between groups at different time points. Protein phosphorylation analysis and comparison of ordinal variables (number of refibrillations) were performed using Wilcoxon Mann-Whitney test. […] P<0.05 was considered statistically significant. All statistical analysis were performed using Stata 11.1 (Stata Corp LP)

[3] = more water-soluble than dantrolene; cited from earlier work
[4] = 2 mg/kg bolus, defibrillation energy
[5] = 2 mg/kg bolus, post-defibrillation

Q: Which “Incidence of CaA-ALT after second VF” value ([1]; Dantrolene 10-20 μM/l) does the source give for `O=C1CN(N=Cc2ccc(-c3ccc([N+](=O)[O-])cc3)o2)C(=O)N1.[Na]` [Dantrolene, 1-[[[5-(4-nitrophenyl)-2-furanyl]methylene]amino]-2,4-imidazolidinedione sodium salt] here?
A: approximately 12.5%

Q: And the “mean duration of all VF episodes combined” value ([1]; Dantrolene 10-20 μM/l)?
A: about 194±234 sec

Q: What about the “successful attempts to induce VF (VF lasting ≧10 sec)” value ([1]; Dantrolene 10-20 μM/l infused at 1 min of first VF, 12 of 31 attempts) of the same compound?
A: 38.7%

Q: And the “VF episodes sustained >60 sec” value ([1]; Dantrolene 10-20 μM/l, 7 of 31 attempts)?
A: 22.58%

Q: What about the alternans threshold ([1]; Dantrolene 10-20 μM/l, pacing cycle length) of the same compound?
A: about 186±11 msec CL

Q: What about the “Number of Refibrillations” value ([2]; 2 mg/kg bolus) of the same compound?
A: 0.6 ± 0.4

Q: What about the “Number of shocks to terminate refibrillations” value ([2]; 2 mg/kg bolus) of the same compound?
A: 1 ± 0

Q: And the “Sinus rhythm immediately post-defibrillation” value ([2]; 2 mg/kg bolus)?
A: approximately 90.91%

Q: And the “Survival after Refibrillation” value ([2]; 2 mg/kg bolus)?
A: 100% (3)

Q: What about the “Time to ROSC calculated from immediately post-defibrillation” value ([2]; 2 mg/kg bolus) of the same compound?
A: about 13±4 sec

Q: What about the “Time to onset of Refibrillation” value ([2]; 2 mg/kg bolus) of the same compound?
A: 51 ± 9 s

Q: And the “animals requiring energy levels ≦200J for defibrillating the initial VF” value ([2]; 2 mg/kg bolus)?
A: Ninety

Q: What about the “sBP peak at 5 min post-defibrillation” value ([2]; 2 mg/kg bolus) of the same compound?
A: approximately 98±17 mmHg

Q: And the “Final Rhythm PEA” value ([2]; 2 mg/kg bolus at onset of CPR)?
A: 0%

Q: And the “Final Rhythm Sinus” value ([2]; 2 mg/kg bolus at onset of CPR)?
A: 90.91%

Q: And the “Final Rhythm VF (or VrF)” value ([2]; 2 mg/kg bolus at onset of CPR)?
A: 9.09%

Q: What about the “ROSC (at 5 min post-defibrillation)” value ([2]; 2 mg/kg bolus at onset of CPR) of the same compound?
A: 90.91%

Q: What about the “post-defibrillation VERP” value ([2]; 2 mg/kg bolus, 20 minutes into recovery) of the same compound?
A: about 215±9 msec

Q: And the “Refibrillation Incidence” value ([2]; 2 mg/kg bolus, 30 min monitoring after defibrillation)?
A: 36.36%

Q: And the Maximum energy level [2, 4]?
A: 187 ± 62 J

Q: And the Total energy level [2, 4]?
A: 366 ± 139

Q: And the “Total time in VF Including VrF (refibrillation)” value ([2]; 2 mg/kg bolus, initial VF plus all refibrillations)?
A: 478 ± 19 s

Q: What about the “Total time in VF Excluding VrF” value ([2]; 2 mg/kg bolus, initial VF without refibrillations) of the same compound?
A: 466 ± 18 s

Q: And the QT interval post-defibrillation [2, 5]?
A: about 334±83 msec

Q: What about the “Tp-Tn (repolarization dispersion) post-defibrillation” value [2, 5] of the same compound?
A: about 84±22 msec

Q: And the “Number of shocks (>2 attempts)” value ([2]; 2 mg/kg bolus, share of animals needing >2 attempts)?
A: 9.09%

Q: What about the Refibrillation duration ([2]; 2 mg/kg bolus, sodium salt, 2 mg/kg) of the same compound?
A: 32 ± 6 s

Q: And the “mean dBP at the end of experiment” value ([2]; 2 mg/kg bolus, survivors)?
A: about 61±10 mmHg

Q: What about the “mean sBP at the end of experiment” value ([2]; 2 mg/kg bolus, survivors) of the same compound?
A: about 84±11 mmHg

Q: What about the Successful defibrillation ([2]; Dantrolene Sodium 2 mg/kg bolus at onset of CPR after 4 min untreated VF) of the same compound?
A: 100%

Q: And the “QT interval at baseline” value ([2]; Dantrolene group, baseline)?
A: about 432±48 msec

Q: What about the “Tp-Tn (repolarization dispersion) at baseline” value ([2]; Dantrolene group, baseline) of the same compound?
A: about 68±23 msec

Q: With `O=C1CN(/N=C/c2ncc(-c3ccc(Br)cc3)o2)C(=O)N1` [Azumolene] as the compound, how does the “water solubility relative to dantrolene” value [3] read?
A: 30 times

Reference: US9636327B2 (University Health Network, Toronto General Hospital, priority 2013, dated 2017)
